Experimental data as given in US20250099405A1, “COMPOSITIONS, METHODS, AND DEVELOPMENT OF ARID4B INHIBITORS” (University of Kentucky Research Foundation, priority 2022, published 2025).

Columns and labels:
HA-ARID4B = biological target: T1, HA-ARID4B (Homo sapiens, UniProt Q4LE39); test: CETSA in HEK-293T cells expressing HA-ARID4B; assay type: cell-based; conditions: 10 μM, 2 h
T1 construct: transfected with vector, full-length ARID4B or ARID4B deletion mutants; expressed in transfected cells; host or cells: HEK-293T
T1 sequence (Q4LE39 1-1312): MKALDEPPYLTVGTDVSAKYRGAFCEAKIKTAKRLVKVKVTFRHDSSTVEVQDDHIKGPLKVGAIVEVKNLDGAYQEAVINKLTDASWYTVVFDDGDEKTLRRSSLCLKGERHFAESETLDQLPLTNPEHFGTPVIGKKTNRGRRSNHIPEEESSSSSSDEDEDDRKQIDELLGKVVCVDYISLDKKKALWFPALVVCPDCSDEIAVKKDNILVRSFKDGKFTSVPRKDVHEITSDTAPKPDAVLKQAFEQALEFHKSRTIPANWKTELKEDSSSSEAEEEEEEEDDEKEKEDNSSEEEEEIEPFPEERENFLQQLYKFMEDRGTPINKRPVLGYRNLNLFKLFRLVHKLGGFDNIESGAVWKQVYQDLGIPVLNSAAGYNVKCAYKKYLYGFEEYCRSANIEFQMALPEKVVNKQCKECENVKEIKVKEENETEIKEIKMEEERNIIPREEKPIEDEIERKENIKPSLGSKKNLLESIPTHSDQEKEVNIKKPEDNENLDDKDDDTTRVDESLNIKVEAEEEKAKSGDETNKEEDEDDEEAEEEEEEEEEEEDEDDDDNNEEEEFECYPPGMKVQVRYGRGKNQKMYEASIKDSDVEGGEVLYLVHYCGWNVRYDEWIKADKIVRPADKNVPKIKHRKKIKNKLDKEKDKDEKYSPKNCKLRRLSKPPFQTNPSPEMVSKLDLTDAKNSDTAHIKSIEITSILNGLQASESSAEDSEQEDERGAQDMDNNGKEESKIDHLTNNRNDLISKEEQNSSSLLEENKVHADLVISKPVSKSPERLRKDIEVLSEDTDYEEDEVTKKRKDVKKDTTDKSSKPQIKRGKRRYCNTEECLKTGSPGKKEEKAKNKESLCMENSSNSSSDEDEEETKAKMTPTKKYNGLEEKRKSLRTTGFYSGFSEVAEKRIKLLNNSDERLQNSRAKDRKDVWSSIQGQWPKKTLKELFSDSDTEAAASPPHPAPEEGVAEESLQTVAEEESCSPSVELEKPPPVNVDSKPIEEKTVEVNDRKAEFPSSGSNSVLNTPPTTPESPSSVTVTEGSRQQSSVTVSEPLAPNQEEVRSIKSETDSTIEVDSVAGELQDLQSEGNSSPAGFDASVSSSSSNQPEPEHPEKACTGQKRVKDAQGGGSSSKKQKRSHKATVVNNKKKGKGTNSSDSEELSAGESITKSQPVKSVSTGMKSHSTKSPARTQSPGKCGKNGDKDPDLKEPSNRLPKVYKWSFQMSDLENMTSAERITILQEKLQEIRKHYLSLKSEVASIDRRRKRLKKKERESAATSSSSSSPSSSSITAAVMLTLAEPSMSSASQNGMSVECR
Description: (B-C) show cells expressing HA-ARID4B (C) or HA-ARID4BIC (D) treated or not with ARD150 (10 μM) for 2 h were used for CESTA. […] (D-E) show cells expressing HA-ARID4B (D) or Flag-ARID4A (E) treated or not with RWR-18 (10 μM) for 2 h were used for CESTA. […] Data are means±SEM from three experiments. *P<0.05, **P<0.01, ns, not significant.
Using CETSA (cellular thermal shift assay) to examine whether ARD150 or RWR-18 binds to ARID4B, MCF7 cells treated or not with ARD150 or RWR-18 for 2 h were collected, followed by heating at 46, 49, 52, 55, and 58° C. to denature and precipitate ARID4B protein, cell lysis, removal of cell debris and aggregates by centrifugation, and finally detection of remaining thermostable ARID4B protein by western blot. The ARID4B aggregation temperatures without ARD150 were determined to be 49-52° C., but shifted to 52-55° C. after treatment with ARD150 and even more so with RWR-18 (FIG. 15A-D). To determine whether ARD150 and RWR-18 targets the chromodomain of ARID4B, CESTA was performed using chromodomain deletion mutant (ARID4BAC). HEK-293T cells expressing HA-ARID4B or HA-ARID4BAC were treated or not with ARD150 (10 μM) for 2 h and processed for CESTA.

MCF10A = test: Proliferation assay, non-tumorigenic MCF10A; assay type: cell-based; conditions: MCF10A expresses lower ARID4B
MCF7 Y537S = test: MTT proliferation assay, MCF7 Y537S; assay type: cell-based; conditions: data not shown
Description: (§1) To determine the EC50 of ARD150 and two of its derivatives in breast cancer, MCF7, ZR75-1 (wild-type ERα+), and MCF7 Y537S (constitutively activate ERα mutant) and their ARID4B KO counterparts were seeded in 24 well plate and treated with the various concentrations (0, 0.1, 1, 5, 10, 20, 40, 60, and 100 μM) of ARD150 and RWR-18 for 14 days. […] Knockout of ARID4B renders cells less sensitive to these compounds.

ARID4B chromodomain = biological target: T2, ARID4B chromodomain (Homo sapiens, UniProt Q4LE39); test: Isothermal titration calorimetry (ITC); assay type: binding
T2 sequence (Q4LE39 572-624 limits assumed): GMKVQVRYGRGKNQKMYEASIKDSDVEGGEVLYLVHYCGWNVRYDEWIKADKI
Excerpt: It was then undertaken to identify compounds that inhibit ARID4B, focusing on the chromodomain therein. First, the structure of ARID4B was created using a homology model based on an optimized computational platform that combines the iterative threading assembly refinement (TASSER) and SWISSMODEL (FIG. 14A-B). Protein structure prioritization was based on protein-model accuracy, quantitatively measured C-score, TM-score and RMSD value. Next, in silico screening of 160,000 drug-like diverse small molecules from MOE's chemical repository combined with biophysical characterization including isothermal calorimetry (ITC, FIG. 16) and circular dichroism (data not shown) of identified compound ARD150 with recombinant ARID4B chromodomain informed chemical synthesis of diverse scaffolds.
Isothermal titration calorimetry (ITC) was used to confirm the binding of ARD150 and its derivative RWR18 (derived from ARD150 with slight structural modifications) to ARID4B chromodomain and to determine the Kd, reaction stoichiometry (n), enthalpy (ΔH) and entropy (ΔS). […] This highlights to power of rational design to tune the target engagement and affinity of ligands.

T47D = test: MTT proliferation assay, T47D; assay type: cell-based; conditions: data not shown
MCF7 = test: MTT proliferation assay, MCF7; assay type: cell-based; conditions: Homo sapiens, MCF7, 336 h, 14 days
Description: as §1

COc1ccc(C(=O)NCCCN2CCOCC2)cc1OC [ARD150]
shift of aggregation temperatures of HA-ARID4B (HA-ARID4B): resulted in a shift of aggregation temperatures
effect on non-tumorigenic MCF10A (MCF10A): insensitive
EC50 for MCF7 Y537S (MCF7 Y537S): comparable to that of MCF7
Kd (ARID4B chromodomain): 3.5 µM
EC50 for T47D (T47D): comparable to that of MCF7
EC50 (MCF7): 13.8 µM

O=C(COc1ccc(OCc2ccccc2)cc1)NCCCN1CCOCC1 [RWR-18]
shift of aggregation temperatures of HA-ARID4B (HA-ARID4B): resulted in a shift of aggregation temperatures
effect on non-tumorigenic MCF10A (MCF10A): insensitive
EC50 for MCF7 Y537S (MCF7 Y537S): comparable to that of MCF7
Kd (ARID4B chromodomain): 1 µM
EC50 for T47D (T47D): comparable to that of MCF7
EC50 (MCF7): 7.9 µM
